Measured values as given in US7166582B2, “Antiallergic composition” (J-Oil Mills, Inc., priority 2003, dated 2007).

Assays:
[1] = tested on: dermatitis induced by repeated application of hapten on an NC/Nga mouse; test: Performance Evaluation Test 1: dermatitis induced by repeated application of hapten (PiCl) on NC/Nga mice; format: in vivo, NC/Nga Tnd Crj male mice; conditions: 0.5% in AIN93G feed; for score of dermatitis (progress of the atopic dermatitis): PiCl induction once a week for five weeks, vs control group, FIGS. 1 and 2
Method: The performance of stachyose mixed in livestock feeds was evaluated against the dermatitis induced by repeated application of hapten on an NC/Nga mouse frequently used as an atopic dermatitis model animal (M. Okada et al., Oyo Yakuri/Pharmcometrics, vol. 59, 135–139 (2000)).
(§1) NC/Nga Tnd Crj male mice at six weeks of age (purchased from Nihon Charles River) were habituated for two weeks. The animals decided as healthy were used for the experiments after an observation of general conditions and body weight measurement. The mice were divided into three groups so that the body weight was averaged. One group was composed of nine mice. A purified livestock feed (AIN93G produced by Oriental Yeast Co.) was used as a basic feed. The mice in Group 1 (a control group) was fed with the purified feed, while the mice in Groups 2 and 3 were fed with a feed prepared by adding the test samples as shown In Table 1 in the basic feed.
Stachyose used in this test was purified to a purity of 98% by ion exchange chromatography after extracting from soybeans with 70% ethanol. Saccharose used in this test was purchased from Wako Junyaku Kabushiki Kaisha.
The mice at eight weeks of age were used for sensation as follows. […]
The symptoms of the atopic dermatitis were observed as follows. The skin condition was observed twice a week starting from a day before the first induction, and the following items were evaluated based on the criteria of clinical syndromes of the human atopic dermatitis. […]
(§2) The score of dermatitis, serum total IgE concentration, and the average body weight and standard deviation thereof were calculated. The significant difference was evaluated by the Student's t-test. A significance level of 5% was evaluated as significant, and the results of the Student's t-test were expressed by dividing into a level of less than 5% (P<0.05) and less than 1% (P<0.01).

IgE = conditions: Japanese Patent Application Laid-open No. 2001-288093; cited from earlier work
atopic dermatitis = conditions: Japanese Patent Application Laid-open No. Hei 11-255656; cited from earlier work
serum total IgE = test: Serum total IgE concentration by EIA in PiCl-sensitized NC/Nga mice; format: in vivo, NC/Nga Tnd Crj male mice; conditions: 0.5% in AIN93G feed; blood on 43rd day after administration; vs control group; FIG. 4
Source text: as §1
The serum total IgE concentration was measured as follows. The blood was extracted on day four before administration, and on 43 rd day after administration (the day for starting administration is counted as the first day). The blood (200 μL) is sampled from the orbital plexus venosus using a heparinated capillary. […]
as §2

[2] = tested on: conventional grade NC/Nga mice that spontaneously start the atopic dermatitis; test: Performance Evaluation Test 2: spontaneous atopic dermatitis in conventional grade NC/Nga mice; format: in vivo, Conventional grade female NC/Nga mice; conditions: feed supplemented with 1% stachyose
Source text: The effect of stachyose on the dermatitis was investigated using conventional grade NC/Nga mice that spontaneously start the atopic dermatitis without applying any haptens (H. Matsuda et al., International Immunology, vol. 9, 461–466 (1997)).
Conventional grade female NC/Nga mice at four weeks of age (purchased from Nihon SLC) were habituated for one week. The mice were divided into two groups so that the body weight was averaged. One group was composed of six mice. All the mice were freely fed on the purified livestock feed (AIN93G) before grouping, and the stachyose administration group was fed on a feed supplemented with 1% stachyose after grouping. The skin conditions were observed and evaluated once per two weeks from the day of start of grouping. The evaluation method was the same as in performance evaluation method 1.

SMILES | score of dermatitis (progress of the atopic dermatitis) [1] | production of IgE (IgE) | anti-atopic dermatitis action (atopic dermatitis) | appearance of the skin (photograph of representative mouse) ([1]; compared with the control group (Group 1), FIG. 3) | level of serum total IgE (serum total IgE) | onset of dermatitis ([2]; 6 to 8 weeks after grouping, control: evident dermatitis on face and ears) | scores of dermatitis ([2]; FIG. 5) | onset of dermatitis ([2]; week four after grouping, control: five of six mice with dermatitis on the face)
OC[C@H]1O[C@@](CO)(O[C@H]2O[C@H](CO)[C@@H](O)[C@H](O)[C@H]2O)[C@@H](O)[C@@H]1O [saccharose, reference compound] | No effects were observed | – | – | – | – | – | – | –
OC[C@H]1O[C@H](OC[C@H]2O[C@H](O[C@]3(CO)O[C@H](CO)[C@@H](O)[C@@H]3O)[C@H](O)[C@@H](O)[C@@H]2O)[C@H](O)[C@@H](O)[C@H]1O [raffinose] | – | has an action for suppressing production of IgE | has an anti-atopic dermatitis action | – | – | – | – | –
OC[C@H]1O[C@H](OC[C@H]2O[C@H](OC[C@H]3O[C@H](O[C@]4(CO)O[C@H](CO)[C@@H](O)[C@@H]4O)[C@H](O)[C@@H](O)[C@@H]3O)[C@H](O)[C@@H](O)[C@H]2O)[C@H](O)[C@@H](O)[C@H]1O [stachyose] | progress of the atopic dermatitis was evidently blocked | – | – | An evident difference of the appearance of the skin was observed | does not influence the level of IgE | no onset of dermatitis was observed at all | the effect of stachyose is evident | no onset of the dermatitis was observed
